Experimental data: US10072011B2, “Substituted bridged urea analogs as sirtuin modulators” (GlaxoSmithKline Intellectual Property (No.2) Limited, priority 2014, dated 2018)
Read-outs that look alike come from different tables or passages of the source.

Molecular target: T1, SIRT1 (Homo sapiens, UniProt Q96EB6)
T1 sequence (Q96EB6 1-747): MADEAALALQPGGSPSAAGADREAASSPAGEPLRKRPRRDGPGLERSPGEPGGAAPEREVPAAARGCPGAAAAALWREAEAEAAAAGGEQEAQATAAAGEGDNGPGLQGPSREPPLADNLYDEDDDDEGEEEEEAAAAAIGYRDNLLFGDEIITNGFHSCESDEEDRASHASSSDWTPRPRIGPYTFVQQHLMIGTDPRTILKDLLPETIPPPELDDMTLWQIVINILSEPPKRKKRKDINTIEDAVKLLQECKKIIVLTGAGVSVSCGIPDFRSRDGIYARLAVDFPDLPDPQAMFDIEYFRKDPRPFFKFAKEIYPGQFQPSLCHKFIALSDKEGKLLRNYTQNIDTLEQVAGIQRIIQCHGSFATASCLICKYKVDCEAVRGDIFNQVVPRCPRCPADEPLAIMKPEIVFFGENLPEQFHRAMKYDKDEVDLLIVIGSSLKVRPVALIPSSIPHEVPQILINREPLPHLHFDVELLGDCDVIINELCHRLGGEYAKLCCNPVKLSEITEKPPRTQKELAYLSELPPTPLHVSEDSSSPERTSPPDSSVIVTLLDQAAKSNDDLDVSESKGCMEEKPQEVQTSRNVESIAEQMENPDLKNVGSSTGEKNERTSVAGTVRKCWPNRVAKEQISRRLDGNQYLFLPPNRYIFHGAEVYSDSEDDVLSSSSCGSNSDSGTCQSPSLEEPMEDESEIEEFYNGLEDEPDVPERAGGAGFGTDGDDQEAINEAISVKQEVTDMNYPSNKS
Test: Trp mass spectrometry assay of SIRT1 activation (Ac-R-H-K-K(Ac)-W-NH2 peptide)
Assay type: biochemical
Conditions: for Emax: 25 min, read-out: TRP MAX RESP (percent maximum fold activation)
Method in brief: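 N-terminal His-tagged human SIRT1, expressed in BL21(DE3) and purified, was incubated 25 min with an acetylated Trp peptide and NAD plus test compound at varying concentrations, then quenched with formic acid. OAADPR or deacetylated peptide was quantified by mass spectrometry versus compound-free control; EC1.5 is the concentration giving 50% activity increase, with percent maximum activation.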

[1] = Trp peptide 0.5 μM, 120 μM βNAD+, 10 nM SIRT1, 25 min at 25° C., relative to control (100%)
[2] = Trp peptide 0.5 μM, 120 μM βNAD+, 10 nM SIRT1, 25 min at 25° C.

SMILES	Emax [1]	TRP Activity (EC1.5, concentration of test compound that results in 150% activation of SIRT1) [2]	Emax
C[C@@H](NC(=O)c1ccc2c(n1)N(C(=O)Nc1ccc(OC[C@H](O)CO)cn1)[C@H]1CCN2C1)C(F)(F)F [Example 149, (4S)—N5-(5-((R)-2,3-dihydroxypropoxy)pyridin-2-yl)-N7-((R)-1,1,1-trifluoropropan-2-yl)-3,4-dihydro-1,4-methanopyrido[2,3-b][1,4]diazepine-5,7(2H)-dicarboxamide]	> 150%	A (EC1.5<1 μM)	–
CC(C)[C@@H](C)NC(=O)c1ccc2c(n1)N(C(=O)Nc1ccccn1)[C@H]1CCN2C1 [Example 45, (4S)—N7-((R)-3-methylbutan-2-yl)-N5-(pyridin-2-yl)-3,4-dihydro-1,4-methanopyrido[2,3-b][1,4]diazepine-5,7(2H)-dicarboxamide]	> 150%	A (EC1.5<1 μM)	–
O=C(NC(CO)C(F)(F)F)c1ccc2c(n1)N(C(=O)Nc1ccccn1)[C@H]1CCN2C1 (stereo partly drawn) [Example 8, (4S)—N-5-(pyridin-2-yl)-N-7-(1,1,1-trifluoro-3-hydroxypropan-2-yl)-3,4-dihydro-1,4-methanopyrido[2,3-b][1,4]diazepine-5,7(2H)-dicarboxamide]	> 150%	A (EC1.5<1 μM)	–
C[C@H](NC(=O)c1ccc2c(n1)N(C(=O)Nc1ccccn1)[C@H]1CCN2C1)C(F)(F)F [Example 207, (4S)—N5-(pyridin-2-yl)-N7-((S)-1,1,1-trifluoropropan-2-yl)-3,4-dihydro-1,4-methanopyrido[2,3-b][1,4]diazepine-5,7(2H)-dicarboxamide]	> 150%	B (EC1.5 1-25 μM)	–
COCC(NC(=O)c1ccc2c(n1)N(C(=O)Nc1ccccn1)[C@H]1CCN2C1)C(F)(F)F (stereo partly drawn) [Example 9, (4S)—N-5-(pyridin-2-yl)-N-7-(1,1,1-trifluoro-3-methoxypropan-2-yl)-3,4-dihydro-1,4-methanopyrido[2,3-b][1,4]diazepine-5,7(2H)-dicarboxamide]	> 150%	A (EC1.5<1 μM)	–
O=C(NCC(F)(F)F)c1ccc2c(n1)N(C(=O)Nc1ccc(F)cn1)[C@H]1CCN2C1 [Example 70, (4S)—N5-(5-fluoropyridin-2-yl)-N7-(2,2,2-trifluoroethyl)-3,4-dihydro-1,4-methanopyrido[2,3-b][1,4]diazepine-5,7(2H)-dicarboxamide]	> 150%	A (EC1.5<1 μM)	–
Cc1c[nH]c2nc(NC(=O)N3c4nc(C(=O)N[C@H](C)C(F)(F)F)ccc4N4CC[C@H]3C4)ncc12 [Example 175, (4S)—N5-(5-methyl-7H-pyrrolo[2,3-d]pyrimidin-2-yl)-N7-((R)-1,1,1-trifluoropropan-2-yl)-3,4-dihydro-1,4-methanopyrido[2,3-b][1,4]diazepine-5,7(2H)-dicarboxamide]	> 150%	A (EC1.5<1 μM)	–
O=C(NCC(F)(F)F)c1ccc2c(n1)N(C(=O)Nc1ncc3cc[nH]c3n1)[C@H]1CCN2C1 [Example 93, (4S)—N5-(7H-pyrrolo[2,3-d]pyrimidin-2-yl)-N7-(2,2,2-trifluoroethyl)-3,4-dihydro-1,4-methanopyrido[2,3-b][1,4]diazepine-5,7(2H)-dicarboxamide]	–	A (EC1.5<1 μM)	> 150%
O=C(NCc1cccc(F)c1)c1ccc2c(n1)N(C(=O)Nc1cc(OC[C@H](O)CO)ccn1)[C@H]1CCN2C1 [Example 187, (4S)—N5-(4-((R)-2,3-dihydroxypropoxy)pyridin-2-yl)-N7-(3-fluorobenzyl)-3,4-dihydro-1,4-methanopyrido[2,3-b][1,4]diazepine-5,7(2H)-dicarboxamide]	> 150%	A (EC1.5<1 μM)	–
C=CCNC(=O)c1ccc2c(n1)N(C(=O)Nc1cc(OC[C@H](O)CO)ccn1)[C@H]1CCN2C1 [Example 178, (4S)—N7-allyl-N5-(4-((R)-2,3-dihydroxypropoxy)pyridin-2-yl)-3,4-dihydro-1,4-methanopyrido[2,3-b][1,4]diazepine-5,7(2H)-dicarboxamide]	> 150%	B (EC1.5 1-25 μM)	–
CC(C)NC(=O)c1ccnc(NC(=O)N2c3nc(C(=O)N[C@H](C)C(F)(F)F)ccc3N3CC[C@H]2C3)c1 [Example 297, (4S)—N5-(4-(isopropylcarbamoyl)pyridin-2-yl)-N7-((R)-1,1,1-trifluoropropan-2-yl)-3,4-dihydro-1,4-methanopyrido[2,3-b][1,4]diazepine-5,7(2H)-dicarboxamide]	< 150%	A (EC1.5<1 μM)	–
C[C@@H](NC(=O)c1ccc2c(n1)N(C(=O)Nc1cc(OCCN)ccn1)[C@H]1CCN2C1)C(F)(F)F [Example 186, (4S)—N5-(4-(2-aminoethoxy)pyridin-2-yl)-N7-((R)-1,1,1-trifluoropropan-2-yl)-3,4-dihydro-1,4-methanopyrido[2,3-b][1,4]diazepine-5,7(2H)-dicarboxamide]	> 150%	B (EC1.5 1-25 μM)	–
COc1ccnc(NC(=O)N2c3nc(C(=O)N[C@H](C)C(F)(F)F)ccc3N3CC[C@H]2C3)c1 [Example 135, (4S)—N5-(4-methoxypyridin-2-yl)-N7-((R)-1,1,1-trifluoropropan-2-yl)-3,4-dihydro-1,4-methanopyrido[2,3-b][1,4]diazepine-5,7(2H)-dicarboxamide]	> 150%	A (EC1.5<1 μM)	–
Cn1cnc(NC(=O)N2c3nc(C(=O)NCC(F)(F)F)ccc3N3CC[C@H]2C3)cc1=O [Example 120, (4S)—N5-(1-methyl-6-oxo-1,6-dihydropyrimidin-4-yl)-N7-(2,2,2-trifluoroethyl)-3,4-dihydro-1,4-methanopyrido[2,3-b][1,4]diazepine-5,7(2H)-dicarboxamide]	> 150%	B (EC1.5 1-25 μM)	–
O=C(NCC1CC1)c1ccc2c(n1)N(C(=O)Nc1cc3c(cn1)OCCC3)[C@H]1CCN2C1 [Example 145, (4S)—N7-(cyclopropylmethyl)-N5-(3,4-dihydro-2H-pyrano[2,3-c]pyridin-6-yl)-3,4-dihydro-1,4-methanopyrido[2,3-b][1,4]diazepine-5,7(2H)-dicarboxamide]	> 150%	A (EC1.5<1 μM)	–
C[C@H](O)CNC(=O)c1ccc2c(n1)N(C(=O)Nc1ccccn1)[C@H]1CCN2C1 [Example 211, (4S)—N7-((S)-2-hydroxypropyl)-N5-(pyridin-2-yl)-3,4-dihydro-1,4-methanopyrido[2,3-b][1,4]diazepine-5,7(2H)-dicarboxamide]	> 150%	B (EC1.5 1-25 μM)	–
Cc1ncc(-c2cc(NC(=O)N3c4nc(C(=O)N[C@H](C)C(F)(F)F)ccc4N4CC[C@H]3C4)ncn2)o1 [Example 318, (4S)—N5-(6-(2-methyloxazol-5-yl)pyrimidin-4-yl)-N7-((R)-1,1,1-trifluoropropan-2-yl)-3,4-dihydro-1,4-methanopyrido[2,3-b][1,4]diazepine-5,7(2H)-dicarboxamide]	< 150%	A (EC1.5<1 μM)	–
